Assay results: ChEMBL document CHEMBL5291721, “A preclinical secondary pharmacology resource illuminates target-adverse drug reaction associations of marketed drugs” (Nat Commun, 2023)

What was measured:
Estrogen receptor = target: T1, Estrogen receptor (Homo sapiens, UniProt P03372); assay type: functional
T1 sequence (P03372 whole entry): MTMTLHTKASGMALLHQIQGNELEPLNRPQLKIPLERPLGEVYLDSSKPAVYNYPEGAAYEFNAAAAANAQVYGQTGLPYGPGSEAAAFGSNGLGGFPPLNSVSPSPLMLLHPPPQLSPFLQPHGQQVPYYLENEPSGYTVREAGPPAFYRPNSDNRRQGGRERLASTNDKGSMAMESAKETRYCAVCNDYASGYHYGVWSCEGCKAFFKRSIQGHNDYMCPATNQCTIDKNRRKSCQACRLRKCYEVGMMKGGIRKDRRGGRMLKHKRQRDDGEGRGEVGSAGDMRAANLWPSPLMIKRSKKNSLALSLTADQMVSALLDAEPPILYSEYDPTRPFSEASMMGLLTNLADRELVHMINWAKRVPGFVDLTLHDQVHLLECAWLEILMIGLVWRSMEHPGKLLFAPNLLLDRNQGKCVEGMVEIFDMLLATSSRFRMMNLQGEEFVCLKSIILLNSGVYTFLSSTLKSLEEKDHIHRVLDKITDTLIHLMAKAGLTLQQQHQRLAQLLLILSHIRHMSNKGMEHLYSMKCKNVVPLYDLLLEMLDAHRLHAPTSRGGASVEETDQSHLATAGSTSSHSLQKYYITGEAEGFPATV

Glucocorticoid receptor [1] = target: T2, Glucocorticoid receptor (Homo sapiens, UniProt P04150); assay type: functional
T2 sequence (P04150 whole entry): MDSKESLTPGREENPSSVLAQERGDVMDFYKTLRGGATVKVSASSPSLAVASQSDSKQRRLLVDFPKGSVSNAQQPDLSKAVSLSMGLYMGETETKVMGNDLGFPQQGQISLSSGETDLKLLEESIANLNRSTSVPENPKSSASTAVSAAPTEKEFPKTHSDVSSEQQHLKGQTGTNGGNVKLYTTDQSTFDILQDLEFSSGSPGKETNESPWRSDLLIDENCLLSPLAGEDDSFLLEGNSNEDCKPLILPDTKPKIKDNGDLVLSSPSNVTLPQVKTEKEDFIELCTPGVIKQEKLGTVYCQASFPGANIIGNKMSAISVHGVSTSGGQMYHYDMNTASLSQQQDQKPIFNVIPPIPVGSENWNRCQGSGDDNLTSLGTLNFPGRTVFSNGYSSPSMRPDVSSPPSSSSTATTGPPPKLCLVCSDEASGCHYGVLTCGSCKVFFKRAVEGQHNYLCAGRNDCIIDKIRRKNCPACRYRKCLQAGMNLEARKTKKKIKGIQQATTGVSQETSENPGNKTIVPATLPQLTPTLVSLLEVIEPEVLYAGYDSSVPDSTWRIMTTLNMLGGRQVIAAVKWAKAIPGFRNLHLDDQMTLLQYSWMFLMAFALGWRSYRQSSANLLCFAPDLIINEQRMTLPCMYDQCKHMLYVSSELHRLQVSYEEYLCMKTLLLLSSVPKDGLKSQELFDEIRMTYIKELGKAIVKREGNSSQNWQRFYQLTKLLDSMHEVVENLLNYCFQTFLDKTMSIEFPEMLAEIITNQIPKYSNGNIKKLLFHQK

Glucocorticoid receptor [2] = target: T2, Glucocorticoid receptor; assay type: functional; remark: listed apart in the source
Substance-K receptor = target: T3, Substance-K receptor (Homo sapiens, UniProt P21452)
T3 sequence (P21452 whole entry): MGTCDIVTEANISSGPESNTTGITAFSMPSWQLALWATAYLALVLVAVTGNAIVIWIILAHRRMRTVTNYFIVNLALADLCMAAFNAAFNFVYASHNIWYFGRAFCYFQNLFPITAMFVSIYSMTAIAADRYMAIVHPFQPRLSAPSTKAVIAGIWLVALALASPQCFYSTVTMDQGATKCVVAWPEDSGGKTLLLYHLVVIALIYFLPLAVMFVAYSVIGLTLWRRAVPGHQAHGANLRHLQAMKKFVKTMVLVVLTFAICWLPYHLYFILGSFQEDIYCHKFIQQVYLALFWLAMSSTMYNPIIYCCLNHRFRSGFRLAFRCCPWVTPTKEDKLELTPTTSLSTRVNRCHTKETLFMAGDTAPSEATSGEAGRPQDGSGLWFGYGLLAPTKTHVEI

[3] = target: Voltage-dependent L-type calcium channel subunit alpha-1C (Homo sapiens, UniProt Q13936); assay type: functional, cell-based
Sequence of Voltage-dependent L-type calcium channel subunit alpha-1C (Q13936 whole entry): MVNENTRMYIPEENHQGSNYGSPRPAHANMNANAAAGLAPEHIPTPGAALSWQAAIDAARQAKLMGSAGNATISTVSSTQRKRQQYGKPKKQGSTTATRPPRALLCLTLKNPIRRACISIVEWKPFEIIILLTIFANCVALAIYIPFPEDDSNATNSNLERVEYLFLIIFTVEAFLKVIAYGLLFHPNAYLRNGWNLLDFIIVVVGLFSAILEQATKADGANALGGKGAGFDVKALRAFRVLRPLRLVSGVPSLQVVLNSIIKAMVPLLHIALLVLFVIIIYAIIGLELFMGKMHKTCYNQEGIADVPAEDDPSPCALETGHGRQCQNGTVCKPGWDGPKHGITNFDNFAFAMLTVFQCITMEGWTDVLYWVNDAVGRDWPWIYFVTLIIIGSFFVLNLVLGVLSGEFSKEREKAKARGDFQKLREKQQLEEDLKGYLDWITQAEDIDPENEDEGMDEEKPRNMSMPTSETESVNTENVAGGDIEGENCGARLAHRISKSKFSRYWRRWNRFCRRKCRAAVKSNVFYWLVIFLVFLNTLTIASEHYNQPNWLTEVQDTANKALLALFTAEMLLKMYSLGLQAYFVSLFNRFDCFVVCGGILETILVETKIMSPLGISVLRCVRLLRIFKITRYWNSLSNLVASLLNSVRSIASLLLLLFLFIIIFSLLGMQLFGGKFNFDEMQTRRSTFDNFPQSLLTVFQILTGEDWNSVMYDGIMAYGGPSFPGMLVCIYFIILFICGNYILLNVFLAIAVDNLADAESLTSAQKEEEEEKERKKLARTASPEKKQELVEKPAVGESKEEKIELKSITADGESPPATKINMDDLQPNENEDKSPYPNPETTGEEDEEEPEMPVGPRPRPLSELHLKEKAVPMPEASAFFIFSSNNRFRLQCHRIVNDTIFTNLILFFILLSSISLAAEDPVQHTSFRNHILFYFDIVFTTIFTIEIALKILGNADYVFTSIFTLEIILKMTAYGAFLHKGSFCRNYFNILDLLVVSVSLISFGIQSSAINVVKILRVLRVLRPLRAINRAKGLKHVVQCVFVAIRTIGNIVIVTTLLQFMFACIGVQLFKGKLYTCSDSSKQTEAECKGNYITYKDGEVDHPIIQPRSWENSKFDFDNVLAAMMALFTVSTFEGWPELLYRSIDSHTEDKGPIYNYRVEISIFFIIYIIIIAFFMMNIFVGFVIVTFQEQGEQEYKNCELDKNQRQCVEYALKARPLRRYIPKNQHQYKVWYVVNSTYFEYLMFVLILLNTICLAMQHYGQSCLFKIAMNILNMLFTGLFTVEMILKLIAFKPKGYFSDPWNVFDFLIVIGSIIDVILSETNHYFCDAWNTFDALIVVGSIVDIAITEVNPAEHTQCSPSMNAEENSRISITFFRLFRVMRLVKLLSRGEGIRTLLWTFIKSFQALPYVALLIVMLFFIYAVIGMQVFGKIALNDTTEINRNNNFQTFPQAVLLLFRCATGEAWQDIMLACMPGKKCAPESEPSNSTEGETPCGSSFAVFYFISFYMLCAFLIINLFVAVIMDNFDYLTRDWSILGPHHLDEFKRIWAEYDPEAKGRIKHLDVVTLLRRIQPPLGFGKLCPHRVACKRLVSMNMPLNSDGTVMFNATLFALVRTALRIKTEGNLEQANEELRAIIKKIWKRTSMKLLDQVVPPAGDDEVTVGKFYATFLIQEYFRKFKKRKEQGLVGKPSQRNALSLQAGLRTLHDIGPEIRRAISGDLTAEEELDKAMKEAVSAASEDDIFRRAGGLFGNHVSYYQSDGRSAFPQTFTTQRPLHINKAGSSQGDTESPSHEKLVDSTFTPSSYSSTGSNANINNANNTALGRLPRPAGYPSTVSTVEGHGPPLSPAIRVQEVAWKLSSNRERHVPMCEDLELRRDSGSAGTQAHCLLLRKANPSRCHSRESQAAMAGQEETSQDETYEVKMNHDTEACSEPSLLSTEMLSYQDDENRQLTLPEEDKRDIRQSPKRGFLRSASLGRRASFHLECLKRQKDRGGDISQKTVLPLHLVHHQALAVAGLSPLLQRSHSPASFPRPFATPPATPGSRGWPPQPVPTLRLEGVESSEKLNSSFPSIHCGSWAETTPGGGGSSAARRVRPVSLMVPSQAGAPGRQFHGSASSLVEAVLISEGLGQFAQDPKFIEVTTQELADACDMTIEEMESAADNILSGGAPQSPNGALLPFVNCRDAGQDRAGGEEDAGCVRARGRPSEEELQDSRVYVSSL

[4] = target: Synaptic vesicular amine transporter (Rattus norvegicus, UniProt Q01827); assay type: functional
Sequence of Synaptic vesicular amine transporter (Q01827 whole entry): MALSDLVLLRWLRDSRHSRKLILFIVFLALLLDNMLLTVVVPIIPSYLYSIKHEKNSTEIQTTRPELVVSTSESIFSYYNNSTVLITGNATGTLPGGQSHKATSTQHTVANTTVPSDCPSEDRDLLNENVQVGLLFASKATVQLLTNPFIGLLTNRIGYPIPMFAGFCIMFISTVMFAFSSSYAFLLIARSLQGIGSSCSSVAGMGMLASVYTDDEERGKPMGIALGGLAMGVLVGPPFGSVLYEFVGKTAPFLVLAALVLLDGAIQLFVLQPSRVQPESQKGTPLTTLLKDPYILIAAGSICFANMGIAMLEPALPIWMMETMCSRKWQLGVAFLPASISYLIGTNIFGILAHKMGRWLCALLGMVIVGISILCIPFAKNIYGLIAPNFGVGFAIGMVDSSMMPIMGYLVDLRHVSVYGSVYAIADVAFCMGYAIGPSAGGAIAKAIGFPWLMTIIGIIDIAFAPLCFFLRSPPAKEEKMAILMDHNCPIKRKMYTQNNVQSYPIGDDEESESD

Bile acid receptor [5] = target: T4, Bile acid receptor (Homo sapiens, UniProt Q96RI1); assay type: functional
T4 sequence (Q96RI1 whole entry): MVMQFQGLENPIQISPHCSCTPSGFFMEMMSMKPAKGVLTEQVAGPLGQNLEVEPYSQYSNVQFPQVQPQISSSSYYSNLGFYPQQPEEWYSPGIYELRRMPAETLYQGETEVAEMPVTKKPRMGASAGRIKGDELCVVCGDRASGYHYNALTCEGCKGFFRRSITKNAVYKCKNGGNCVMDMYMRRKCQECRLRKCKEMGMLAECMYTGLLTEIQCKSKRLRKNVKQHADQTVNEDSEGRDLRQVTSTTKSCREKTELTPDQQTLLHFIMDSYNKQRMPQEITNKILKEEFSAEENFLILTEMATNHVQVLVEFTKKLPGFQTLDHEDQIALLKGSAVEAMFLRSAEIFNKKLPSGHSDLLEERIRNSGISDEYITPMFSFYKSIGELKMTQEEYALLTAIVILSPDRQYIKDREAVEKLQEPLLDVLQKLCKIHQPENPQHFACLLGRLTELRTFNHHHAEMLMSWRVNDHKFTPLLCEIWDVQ

Bile acid receptor [6] = target: T4, Bile acid receptor; assay type: functional; remark: listed apart in the source
[7] = target: T5, Type-2 angiotensin II receptor (Homo sapiens, UniProt P50052); assay type: functional
T5 sequence (P50052 whole entry): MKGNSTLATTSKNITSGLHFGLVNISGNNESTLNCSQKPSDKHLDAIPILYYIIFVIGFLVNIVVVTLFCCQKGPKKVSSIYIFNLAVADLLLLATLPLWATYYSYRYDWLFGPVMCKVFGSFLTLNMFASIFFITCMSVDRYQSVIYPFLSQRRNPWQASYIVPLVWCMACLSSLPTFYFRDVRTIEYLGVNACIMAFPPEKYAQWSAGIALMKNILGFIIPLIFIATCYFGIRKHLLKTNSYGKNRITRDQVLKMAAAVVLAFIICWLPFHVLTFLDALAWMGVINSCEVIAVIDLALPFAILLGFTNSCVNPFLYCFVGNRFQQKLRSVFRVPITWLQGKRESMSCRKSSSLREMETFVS

[8] = target: 5-hydroxytryptamine receptor 6 (Homo sapiens, UniProt P50406)
Sequence of 5-hydroxytryptamine receptor 6 (P50406 whole entry): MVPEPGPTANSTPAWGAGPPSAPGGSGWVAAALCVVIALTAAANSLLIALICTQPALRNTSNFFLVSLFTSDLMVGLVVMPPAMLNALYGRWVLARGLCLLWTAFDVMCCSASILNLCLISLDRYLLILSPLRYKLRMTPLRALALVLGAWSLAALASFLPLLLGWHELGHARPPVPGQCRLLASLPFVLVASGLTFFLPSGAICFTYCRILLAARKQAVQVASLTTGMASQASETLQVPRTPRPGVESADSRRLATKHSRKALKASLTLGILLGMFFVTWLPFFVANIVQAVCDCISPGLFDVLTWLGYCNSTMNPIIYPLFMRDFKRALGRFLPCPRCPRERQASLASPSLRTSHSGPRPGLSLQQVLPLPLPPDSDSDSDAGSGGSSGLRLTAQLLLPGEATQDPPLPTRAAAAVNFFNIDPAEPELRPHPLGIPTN

[9] = target: 5-hydroxytryptamine receptor 7 (Homo sapiens, UniProt P34969)
Sequence of 5-hydroxytryptamine receptor 7 (P34969 whole entry): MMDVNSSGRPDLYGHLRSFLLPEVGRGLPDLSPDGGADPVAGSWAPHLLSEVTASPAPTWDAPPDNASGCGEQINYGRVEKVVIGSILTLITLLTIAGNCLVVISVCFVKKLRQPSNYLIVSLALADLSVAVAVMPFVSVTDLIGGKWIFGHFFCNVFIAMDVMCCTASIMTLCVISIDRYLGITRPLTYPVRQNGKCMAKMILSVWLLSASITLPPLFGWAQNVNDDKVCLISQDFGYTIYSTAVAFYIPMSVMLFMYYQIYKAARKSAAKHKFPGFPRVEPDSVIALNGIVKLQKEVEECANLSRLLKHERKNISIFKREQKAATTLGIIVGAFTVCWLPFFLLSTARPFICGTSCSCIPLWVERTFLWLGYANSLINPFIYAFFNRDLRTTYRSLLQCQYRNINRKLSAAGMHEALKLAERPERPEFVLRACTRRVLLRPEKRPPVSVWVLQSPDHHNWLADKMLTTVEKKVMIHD
Further: assay procedure not described here.

CCCCCCOC(=O)NC(=N)c1ccc(NCc2nc3cc(C(=O)N(CCC(=O)OCC)c4ccccn4)ccc3n2C)cc1 [DABIGATRAN ETEXILATE]
AC50 (Estrogen receptor): > 30 µM | AC50 (Glucocorticoid receptor [1]): > 30 µM | AC50 (Glucocorticoid receptor [2]): > 30 µM

CCN(CC)CC(=O)Nc1c(C)cccc1C [LIDOCAINE]
AC50 (Substance-K receptor): > 10 µM

O=C(O)c1ccc2nc(-c3cc(Cl)cc(Cl)c3)oc2c1
AC50 [3]: > 30 µM

CC(=O)N1CCN(c2ccc(OCC3COC(Cn4ccnc4)(c4ccc(Cl)cc4Cl)O3)cc2)CC1 (stereo unspecified) [KETOCONAZOLE]
AC50 [4]: 0.57 µM | AC50 (Bile acid receptor [5]): 15 µM | AC50 (Glucocorticoid receptor [1]): > 30 µM | AC50 (Bile acid receptor [6]): > 10 µM

CCCCCCCC(=O)CC[C@@H]1[C@@H](C/C=C\CCCC(=O)O)[C@@H](O)C[C@H]1O [UNOPROSTONE]
AC50 [3]: > 50 µM

CC(C)(C)NCC(O)COc1cccc2c1CC(O)C(O)C2 (stereo unspecified) [NADOLOL]
AC50 [7]: > 100 µM

Cc1ccc(-c2ncc(Cl)cc2-c2ccc(S(C)(=O)=O)cc2)cn1 [ETORICOXIB]
AC50 [8]: > 10 µM | AC50 [9]: > 10 µM | AC50 (Substance-K receptor): > 10 µM

COc1ccc(-n2nc(C(N)=O)c3c2C(=O)N(c2ccc(N4CCCCC4=O)cc2)CC3)cc1 [APIXABAN]
AC50 (Estrogen receptor): > 30 µM | AC50 (Glucocorticoid receptor [1]): > 30 µM | AC50 (Glucocorticoid receptor [2]): > 30 µM

CN1C2CCCC1CC(NC(=O)c1nn(C)c3ccccc13)C2 (stereo unspecified) [GRANISETRON]
AC50 [8]: > 10 µM | AC50 [9]: > 10 µM | AC50 (Substance-K receptor): > 10 µM

COC(=O)c1ccc2c(c1)NC(=O)/C2=C(\Nc1ccc(N(C)C(=O)CN2CCN(C)CC2)cc1)c1ccccc1 [NINTEDANIB]
AC50 (Estrogen receptor): > 30 µM

CC(NC(C)(C)C)C(=O)c1cccc(Cl)c1 (stereo unspecified) [BUPROPION]
AC50 [4]: > 30 µM | AC50 [8]: > 10 µM | AC50 [9]: > 10 µM | AC50 (Substance-K receptor): > 10 µM

CC1Cc2ccccc2N1NC(=O)c1ccc(Cl)c(S(N)(=O)=O)c1 (stereo unspecified) [INDAPAMIDE]
AC50 [7]: > 100 µM
